Measurements taken from ChEMBL document CHEMBL3885881, “DrugMatrix”.

Species: Rattus norvegicus
Test: DrugMatrix - Regimen: Daily Repeat
Type: toxicity, organism-based, Sprague-Dawley
Set-up: regimen Daily Repeat, gender Male, age 6-8 weeks
Details: in vivo, po, route oral GAVAGE, vehicle .5 % CMC; for ABSOLUTE BASOPHIL / ABSOLUTE EOSINOPHIL / ABSOLUTE LYMPHOCYTE / ABSOLUTE MONOCYTE / ABSOLUTE SEGMENTED NEUTROPHIL / BASOPHIL / EOSINOPHIL / ERYTHROCYTE COUNT / HEMATOCRIT / HEMOGLOBIN / LEUKOCYTE COUNT / LYMPHOCYTE / MEAN CORPUSCULAR HEMOGLOBIN / MEAN CORPUSCULAR HEMOGLOBIN CONCENTRATION / MEAN CORPUSCULAR VOLUME / MONOCYTE / NEUTROPHIL / NUCLEATED RED BLOOD CELLS / PLATELET COUNT: tissue Blood; for ALANINE AMINOTRANSFERASE / ALBUMIN / ALKALINE PHOSPHATASE / ASPARTATE AMINOTRANSFERASE / BLOOD UREA NITROGEN / CARBON DIOXIDE / CHLORIDE / CHOLESTEROL / CREATINE PHOSPHOKINASE / CREATININE / GLUCOSE / LACTATE DEHYDROGENASE / LIPASE / PHOSPHORUS / POTASSIUM / SODIUM / TOTAL BILIRUBIN / TOTAL PROTEIN / URIC ACID: tissue Plasma
[1] = 25 mg/kg, 72 h, dose level Low, time 3 day
[2] = 25 mg/kg, 120 h, dose level Low, time 5 day
[3] = 1500 mg/kg, 72 h, dose level High, time 3 day
[4] = 1500 mg/kg, 120 h, dose level High, time 5 day

COC(=O)Nc1nc2ccc([S+]([O-])c3ccccc3)cc2[nH]1 (configuration not stated) [OXFENDAZOLE]
ABSOLUTE BASOPHIL [1]: 0 CELLS/uL
ABSOLUTE EOSINOPHIL [1]: 48 CELLS/uL
ABSOLUTE LYMPHOCYTE [1]: 11822 CELLS/uL
ABSOLUTE MONOCYTE [1]: 187.33 CELLS/uL
ABSOLUTE SEGMENTED NEUTROPHIL [1]: 2342.67 CELLS/uL
BASOPHIL [1]: 0%
EOSINOPHIL [1]: 0.33%
ERYTHROCYTE COUNT [1]: 6.05 x10E6/uL
HEMATOCRIT [1]: 36.2%
HEMOGLOBIN [1]: 13.87 G/DL
LEUKOCYTE COUNT [1]: 14.4 x10E3/uL
LYMPHOCYTE [1]: 82%
MEAN CORPUSCULAR HEMOGLOBIN [1]: 22.93 pg
MEAN CORPUSCULAR HEMOGLOBIN CONCENTRATION [1]: 38.33 G/DL
MEAN CORPUSCULAR VOLUME [1]: 59.8 fL
MONOCYTE [1]: 1.33%
NEUTROPHIL [1]: 16.33%
NUCLEATED RED BLOOD CELLS [1]: 0 /100WBC
PLATELET COUNT [1]: 1268.67 x10E3/uL
ALANINE AMINOTRANSFERASE [1]: 56 u/L
ALBUMIN [1]: 4.13 G/DL
ALKALINE PHOSPHATASE [1]: 355 u/L
ASPARTATE AMINOTRANSFERASE [1]: 78.67 u/L
BLOOD UREA NITROGEN [1]: 14 mg/dL
CARBON DIOXIDE [1]: 25 mmol/L
CHLORIDE [1]: 99 MEQ/L
CHOLESTEROL [1]: 78.67 mg/dL
CREATINE PHOSPHOKINASE [1]: 173.33 u/L
CREATININE [1]: 0.15 mg/dL
GLUCOSE [1]: 161.67 mg/dL
LACTATE DEHYDROGENASE [1]: 153 u/L
LIPASE [1]: 10 u/L
PHOSPHORUS [1]: 13.1 mg/dL
POTASSIUM [1]: 8.18 MEQ/L
SODIUM [1]: 142.9 MEQ/L
TOTAL BILIRUBIN [1]: 0.2 mg/dL
TOTAL PROTEIN [1]: 5.77 G/DL
URIC ACID [1]: 2.07 mg/dL
ABSOLUTE BASOPHIL [2]: 0 CELLS/uL
ABSOLUTE EOSINOPHIL [2]: 0 CELLS/uL
ABSOLUTE LYMPHOCYTE [2]: 12550 CELLS/uL
ABSOLUTE MONOCYTE [2]: 0 CELLS/uL
ABSOLUTE SEGMENTED NEUTROPHIL [2]: 983.33 CELLS/uL
BASOPHIL [2]: 0%
EOSINOPHIL [2]: 0%
ERYTHROCYTE COUNT [2]: 5.35 x10E6/uL
HEMATOCRIT [2]: 31.93%
HEMOGLOBIN [2]: 12.77 G/DL
LEUKOCYTE COUNT [2]: 13.53 x10E3/uL
LYMPHOCYTE [2]: 93%
MEAN CORPUSCULAR HEMOGLOBIN [2]: 23.9 pg
MEAN CORPUSCULAR HEMOGLOBIN CONCENTRATION [2]: 40 G/DL
MEAN CORPUSCULAR VOLUME [2]: 59.73 fL
MONOCYTE [2]: 0%
NEUTROPHIL [2]: 7%
NUCLEATED RED BLOOD CELLS [2]: 0 /100WBC
PLATELET COUNT [2]: 856.67 x10E3/uL
ALANINE AMINOTRANSFERASE [2]: 57.67 u/L
ALBUMIN [2]: 4.17 G/DL
ALKALINE PHOSPHATASE [2]: 330.67 u/L
ASPARTATE AMINOTRANSFERASE [2]: 89 u/L
BLOOD UREA NITROGEN [2]: 16 mg/dL
CARBON DIOXIDE [2]: 24 mmol/L
CHLORIDE [2]: 100.67 MEQ/L
CHOLESTEROL [2]: 74 mg/dL
CREATINE PHOSPHOKINASE [2]: 346.33 u/L
CREATININE [2]: 0.21 mg/dL
GLUCOSE [2]: 161.67 mg/dL
LACTATE DEHYDROGENASE [2]: 356.67 u/L
LIPASE [2]: 9 u/L
PHOSPHORUS [2]: 12.83 mg/dL
POTASSIUM [2]: 7.04 MEQ/L
SODIUM [2]: 141.83 MEQ/L
TOTAL BILIRUBIN [2]: 0.2 mg/dL
TOTAL PROTEIN [2]: 5.9 G/DL
URIC ACID [2]: 2.33 mg/dL
ABSOLUTE BASOPHIL [3]: 0 CELLS/uL
ABSOLUTE EOSINOPHIL [3]: 0 CELLS/uL
ABSOLUTE LYMPHOCYTE [3]: 9253.67 CELLS/uL
ABSOLUTE MONOCYTE [3]: 174.67 CELLS/uL
ABSOLUTE SEGMENTED NEUTROPHIL [3]: 671.67 CELLS/uL
BASOPHIL [3]: 0%
EOSINOPHIL [3]: 0%
ERYTHROCYTE COUNT [3]: 5.79 x10E6/uL
HEMATOCRIT [3]: 34.2%
HEMOGLOBIN [3]: 13.37 G/DL
LEUKOCYTE COUNT [3]: 10.1 x10E3/uL
LYMPHOCYTE [3]: 91.67%
MEAN CORPUSCULAR HEMOGLOBIN [3]: 23.07 pg
MEAN CORPUSCULAR HEMOGLOBIN CONCENTRATION [3]: 39.1 G/DL
MEAN CORPUSCULAR VOLUME [3]: 59.03 fL
MONOCYTE [3]: 1.67%
NEUTROPHIL [3]: 6.67%
NUCLEATED RED BLOOD CELLS [3]: 0 /100WBC
PLATELET COUNT [3]: 1138.67 x10E3/uL
ALANINE AMINOTRANSFERASE [3]: 42.33 u/L
ALBUMIN [3]: 4 G/DL
ALKALINE PHOSPHATASE [3]: 328.67 u/L
ASPARTATE AMINOTRANSFERASE [3]: 70.33 u/L
BLOOD UREA NITROGEN [3]: 15.33 mg/dL
CARBON DIOXIDE [3]: 27.33 mmol/L
CHLORIDE [3]: 100.33 MEQ/L
CHOLESTEROL [3]: 67.67 mg/dL
CREATINE PHOSPHOKINASE [3]: 217.33 u/L
CREATININE [3]: 0.17 mg/dL
GLUCOSE [3]: 160.33 mg/dL
LACTATE DEHYDROGENASE [3]: 90 u/L
LIPASE [3]: 9.67 u/L
PHOSPHORUS [3]: 11.6 mg/dL
POTASSIUM [3]: 6.25 MEQ/L
SODIUM [3]: 142.17 MEQ/L
TOTAL BILIRUBIN [3]: 0.1 mg/dL
TOTAL PROTEIN [3]: 5.43 G/DL
URIC ACID [3]: 1.83 mg/dL
ABSOLUTE BASOPHIL [4]: 0 CELLS/uL
ABSOLUTE EOSINOPHIL [4]: 0 CELLS/uL
ABSOLUTE LYMPHOCYTE [4]: 9784.67 CELLS/uL
ABSOLUTE MONOCYTE [4]: 35.33 CELLS/uL
ABSOLUTE SEGMENTED NEUTROPHIL [4]: 380 CELLS/uL
BASOPHIL [4]: 0%
EOSINOPHIL [4]: 0%
ERYTHROCYTE COUNT [4]: 5.39 x10E6/uL
HEMATOCRIT [4]: 32.9%
HEMOGLOBIN [4]: 13.2 G/DL
LEUKOCYTE COUNT [4]: 10.2 x10E3/uL
LYMPHOCYTE [4]: 95.67%
MEAN CORPUSCULAR HEMOGLOBIN [4]: 24.53 pg
MEAN CORPUSCULAR HEMOGLOBIN CONCENTRATION [4]: 40.13 G/DL
MEAN CORPUSCULAR VOLUME [4]: 61.07 fL
MONOCYTE [4]: 0.33%
NEUTROPHIL [4]: 4%
NUCLEATED RED BLOOD CELLS [4]: 0 /100WBC
PLATELET COUNT [4]: 1442.33 x10E3/uL
ALANINE AMINOTRANSFERASE [4]: 41 u/L
ALBUMIN [4]: 4.17 G/DL
ALKALINE PHOSPHATASE [4]: 331.33 u/L
ASPARTATE AMINOTRANSFERASE [4]: 79.67 u/L
BLOOD UREA NITROGEN [4]: 15.33 mg/dL
CARBON DIOXIDE [4]: 27.67 mmol/L
CHLORIDE [4]: 101.67 MEQ/L
CHOLESTEROL [4]: 69.67 mg/dL
CREATINE PHOSPHOKINASE [4]: 228 u/L
CREATININE [4]: 0.16 mg/dL
GLUCOSE [4]: 143 mg/dL
LACTATE DEHYDROGENASE [4]: 165 u/L
LIPASE [4]: 9.33 u/L
PHOSPHORUS [4]: 13.13 mg/dL
POTASSIUM [4]: 6.91 MEQ/L
SODIUM [4]: 146.13 MEQ/L
TOTAL BILIRUBIN [4]: 0.13 mg/dL
TOTAL PROTEIN [4]: 5.77 G/DL
URIC ACID [4]: 1.7 mg/dL
